From ChEMBL document CHEMBL5634112, “Synthesis and biological evaluation of fluoroquinolones containing a pyridoxine derivatives moiety” (Eur J Med Chem, 2023)
Activity calls are given as the source filed them. No cut-off for these calls is given here.

Tests used:
[1] = Toxicity in male rat assessed as mortality at 2000 mg/kg, po; format: organism-based; conditions: in vivo
[2] = Genotoxicity in Salmonella typhimurium TA98 by Ames test; format: toxicity; conditions: salmonella enterica subsp. enterica serovar typhimurium
[3] = Toxicity in F1 C57Bl6 x CBA mouse assessed as mortality at 1000 to 2000 mg/kg, po relative to control; format: organism-based; conditions: in vivo, dose 1000-2000 mg/kg
Klebsiella pneumoniae = experiment: Antibacterial activity against clinical isolate Klebsiella pneumoniae 1678 assessed as reduction in microbial growth incubated for 24 hrs by broth microdilution method; format: functional
Bacillus subtilis = experiment: Antibacterial activity against Bacillus subtilis 168 assessed as reduction in microbial growth incubated for 24 hrs by broth microdilution method; format: functional
Pseudomonas aeruginosa [4] = experiment: Antibacterial activity against clinical isolate Pseudomonas aeruginosa NKC 17 assessed as reduction in microbial growth incubated for 24 hrs by broth microdilution method; format: functional
Staphylococcus aureus [5] = experiment: Antibacterial activity against clinical isolate methicillin resistant Staphylococcus aureus 4771 assessed as reduction in microbial growth incubated for 24 hrs by broth microdilution method; format: functional
Pseudomonas aeruginosa [6] = experiment: Antibacterial activity against Pseudomonas aeruginosa ATCC 27853 assessed as reduction in microbial growth incubated for 24 hrs by broth microdilution method; format: functional
Staphylococcus aureus [7] = experiment: Antibacterial activity against clinical isolate Staphylococcus aureus 1812 assessed as reduction in microbial growth incubated for 24 hrs by broth microdilution method; format: functional
[8] = Toxicity in male F1 C57Bl6 x CBA mouse assessed as mortality at 1000 to 2000 mg/kg, po; format: organism-based; conditions: in vivo, dose 1000-2000 mg/kg
[9] = system: Staphylococcus epidermidis; experiment: Antibacterial activity against clinical isolate Staphylococcus epidermidis NKC 37/1 assessed as reduction in microbial growth incubated for 24 hrs by broth microdilution method; format: functional
DNA gyrase [10] = target: T1, DNA gyrase (Staphylococcus aureus, UniProt P0A0K8+P20831); experiment: Inhibition of Staphylococcus aureus DNA gyrase using relaxed pBR322 DNA as substrate incubated for 30 mins by ethidium bromide staining based agarose gel electrophoresis method; format: protein-complex assay
[11] = Genotoxicity in Salmonella typhimurium TA100 by Ames test; format: toxicity; conditions: salmonella enterica subsp. enterica serovar typhimurium
[12] = Toxicity in female F1 C57Bl6 x CBA mouse assessed as mortality at 125 mg/kg, po; format: organism-based; conditions: in vivo
Staphylococcus aureus [13] = experiment: Antibacterial activity against clinical isolate Staphylococcus aureus 4721 assessed as reduction in microbial growth incubated for 24 hrs by broth microdilution method; format: functional
[14] = system: Staphylococcus epidermidis; experiment: Antibacterial activity against clinical isolate Staphylococcus epidermidis assessed as reduction in microbial growth incubated for 24 hrs by broth microdilution method; format: functional
[15] = Cytotoxicity against human CHL assessed as reduction in cell viability incubated for 72 hrs by MTT assay; format: toxicity, cell-based; conditions: CHL cells
Enterococcus faecalis = experiment: Antibacterial activity against clinical isolate Enterococcus faecalis 1465 assessed as reduction in microbial growth incubated for 24 hrs by broth microdilution method; format: functional
Staphylococcus aureus [16] = experiment: Antibacterial activity against methicillin sensitive Staphylococcus aureus ATCC 29213 assessed as reduction in microbial growth incubated for 24 hrs by broth microdilution method; format: functional
[17] = Toxicity in F1 C57Bl6 x CBA mouse assessed as mortality at […] 125 to 500 mg/kg, po relative to control; format: organism-based; conditions: in vivo, at 125 to 500 mg/kg, dose 125-500 mg/kg
Cedecea davisae = experiment: Antibacterial activity against clinical isolate Cedecea davisae 1813 assessed as reduction in microbial growth incubated for 24 hrs by broth microdilution method; format: functional
[18] = Toxicity in rat assessed as kidney darkening at 2000 mg/kg, po after 14 days; format: organism-based; conditions: in vivo, 336 h, time 14 day
[19] = Toxicity in po dosed male F1 C57Bl6 x CBA mouse assessed as lethal dose; format: organism-based; conditions: in vivo
[20] = Toxicity in po dosed female F1 C57Bl6 x CBA mouse assessed as lethal dose; format: organism-based; conditions: in vivo
[21] = Toxicity in male F1 C57Bl6 x CBA mouse assessed as mortality at 125 mg/kg, po; format: organism-based; conditions: in vivo
Escherichia coli [22] = experiment: Antibacterial activity against Escherichia coli ATCC 25922 assessed as reduction in microbial growth incubated for 24 hrs by broth microdilution method; format: functional
DNA gyrase [23] = target: T1, DNA gyrase; experiment: Inhibition of Staphylococcus aureus DNA gyrase using supercoiled pBR322 DNA as substrate incubated for 60 mins by ethidium bromide staining based agarose gel electrophoresis method; format: protein-complex assay
[24] = Toxicity in female F1 C57Bl6 x CBA mouse assessed as mortality at 1000 mg/kg, po; format: organism-based; conditions: in vivo
Klebsiella aerogenes = experiment: Antibacterial activity against clinical isolate Enterobacter aerogenes NKC 8 assessed as reduction in microbial growth incubated for 24 hrs by broth microdilution method; format: functional
[25] = Toxicity in po dosed rat assessed as lethal dose; format: organism-based; conditions: in vivo
[26] = system: Staphylococcus auricularis; experiment: Antibacterial activity against clinical isolate Staphylococcus auricularis NKC 7 assessed as reduction in microbial growth incubated for 24 hrs by broth microdilution method; format: functional
[27] = system: Staphylococcus haemolyticus; experiment: Antibacterial activity against clinical isolate Staphylococcus haemolyticus NKC 31/2 assessed as reduction in microbial growth incubated for 24 hrs by broth microdilution method; format: functional
Escherichia coli [28] = experiment: Antibacterial activity against clinical isolate Escherichia coli NKC 1 assessed as reduction in microbial growth incubated for 24 hrs by broth microdilution method; format: functional
[29] = Cytotoxicity against human MSC assessed as reduction in cell viability incubated for 72 hrs by MTT assay; format: toxicity, cell-based; conditions: MSC cells
[30] = Genotoxicity in Salmonella typhimurium TA102 by Ames test; format: toxicity; conditions: salmonella enterica subsp. enterica serovar typhimurium
Topoisomerase IV = Topoisomerase IV (Staphylococcus aureus, UniProt P0C1S7+P0C1U9); experiment: Inhibition of Staphylococcus aureus topoisomerase-IV assessed as reduction in decatenation using kinetoplast DNA as substrate incubated for 30 mins by ethidium bromide staining based agarose gel electrophoresis method; format: protein-complex assay
[31] = Toxicity in rat assessed as liver darkening at 2000 mg/kg, po after 14 days; format: organism-based; conditions: in vivo, 336 h, time 14 day
Salmonella typhimurium = experiment: Antibacterial activity against Salmonella typhimurium TA100 assessed as reduction in microbial growth incubated for 24 hrs by broth microdilution method; format: functional, Salmonella enterica subsp. enterica serovar Typhimurium; conditions: Salmonella enterica
[32] = Toxicity in F1 C57Bl6 x CBA mouse assessed as liver darkening at 125 mg/kg, po after 14 days; format: organism-based; conditions: in vivo, 336 h, time 14 day
[33] = system: Staphylococcus haemolyticus; experiment: Antibacterial activity against clinical isolate Staphylococcus haemolyticus 1464 assessed as reduction in microbial growth incubated for 24 hrs by broth microdilution method; format: functional
[34] = Cytotoxicity against human HSF assessed as reduction in cell viability incubated for 72 hrs by MTT assay; format: toxicity, cell-based; conditions: HSF cells
Micrococcus luteus = experiment: Antibacterial activity against clinical isolate Micrococcus luteus assessed as reduction in microbial growth incubated for 24 hrs by broth microdilution method; format: functional
[35] = Toxicity in F1 C57Bl6 x CBA mouse assessed as kidney darkening at 125 mg/kg, po after 14 days; format: organism-based; conditions: in vivo, 336 h, time 14 day
[36] = Toxicity in female rat assessed as mortality at 2000 mg/kg, po; format: organism-based; conditions: in vivo
Staphylococcus aureus [37] = experiment: In vivo antibacterial activity against Staphylococcus aureus N-10 infected in SHK mouse model of sepsis assessed as survival at 16 to 18 mg/kg, po measured after 14 days relative to control; format: functional, organism-based; conditions: dose 16-18 mg/kg, time 14.0 day
[38] = Toxicity in po dosed F1 C57Bl6 x CBA mouse assessed as lethal dose; format: organism-based; conditions: in vivo
Staphylococcus aureus [39] = experiment: In vivo antibacterial activity against Staphylococcus aureus N-10 infected in Po dosed SHK mouse model of sepsis assessed as survival measured after 14 days; format: functional; conditions: N-10, 336 h, time 14 day
Staphylococcus aureus [40] = experiment: Potency index ratio of ciprofloxacin ED50 to test compound ED50 for invivo antibacterial activity against Staphylococcus aureus N-10 infected in Po dosed SHK mouse model of sepsis; format: functional
Staphylococcus aureus [41] = experiment: In vivo antibacterial activity against Staphylococcus aureus N-10 infected in SHK mouse model of sepsis assessed as animal death at 2 to 4 mg/kg, po measured after 5 to 14 days; format: functional, organism-based; conditions: dose 2-4 mg/kg, time 5-14 day
[42] = Toxicity in F1 C57Bl6 x CBA mouse assessed as mortality at 2000 mg/kg, po; format: organism-based; conditions: in vivo

For COc1c(N2C[C@@H]3CCCN(Cc4cnc(C)c(O)c4C)[C@@H]3C2)c(F)cc2c(=O)c(C(=O)O)cn(C3CC3)c12.Cl.Cl, the Activity [1] was “Non-Toxic”, the Activity [2] was “Non-Toxic” and the mortality [3] was over 80%. It also gave an MIC (Klebsiella pneumoniae) of 64 µg/mL, an MIC (Bacillus subtilis) of 0.5 µg/mL and an MIC (Pseudomonas aeruginosa [4]) of 64 µg/mL. It also gave an MIC (Staphylococcus aureus [5]) of 0.06 µg/mL, an MIC (Pseudomonas aeruginosa [6]) of 1 µg/mL and an MIC (Staphylococcus aureus [7]) of 0.25 µg/mL. For the same compound, the Activity [8] was “Toxic”, the MIC [9] was 0.06 µg/mL and the IC50 (DNA gyrase [10]) was 85.3 µM. For the same compound, the Activity [11] was “Non-Toxic”, the Activity [12] was “Non-Toxic” and the MIC (Staphylococcus aureus [13]) was 0.06 µg/mL. It also gave an MIC [14] of 0.5 µg/mL, a CC50 at 72 h [15] of 8.22 µg/mL and an MIC (Enterococcus faecalis) of 4 µg/mL. It also gave an MIC (Staphylococcus aureus [16]) of 0.5 µg/mL, a mortality [17] of 0% and an MIC (Cedecea davisae) of 0.03 µg/mL. The Activity [18] was “Toxic”, the LD50 [19] was 406 mg/kg and the LD50 [20] was 541 mg/kg. The Activity [21] was “Non-Toxic”, the MIC (Escherichia coli [22]) was 2 µg/mL and the IC50 (DNA gyrase [23]) was over 656 µM. For the same compound, the Activity [24] was “Toxic”, the MIC (Klebsiella aerogenes) was 16 µg/mL and the LD50 [25] was over 2000 mg/kg. For the same compound, the MIC [26] was 0.03 µg/mL, the MIC [27] was 8 µg/mL and the MIC (Escherichia coli [28]) was 2 µg/mL. For the same compound, the CC50 at 72 h [29] was 12.7 µg/mL, the Activity [30] was “Non-Toxic” and the IC50 (Topoisomerase IV) was 26.2 µM. The Activity [31] was “Toxic”, the MIC (Salmonella typhimurium) was 1 µg/mL and the Activity [32] was “Non-Toxic”. It also gave an MIC [33] of 0.06 µg/mL, a CC50 at 72 h [34] of 17.6 µg/mL and an MIC (Micrococcus luteus) of 0.5 µg/mL. For the same compound, the Activity [35] was “Non-Toxic”.

In the case of Cc1ncc(CN2CCN(c3cc4c(cc3F)c(=O)c(C(=O)O)cn4C3CC3)CC2)c(CO)c1O.Cl, the Activity [1] is reported as “Non-Toxic”, the Activity [2] is reported as “Non-Toxic” and the MIC (Klebsiella pneumoniae) is reported as 8 µg/mL. For the same compound, the MIC (Bacillus subtilis) was 2 µg/mL, the MIC (Pseudomonas aeruginosa [4]) was 16 µg/mL and the Activity [36] was “Non-Toxic”. The MIC (Staphylococcus aureus [5]) was 1 µg/mL, the MIC (Pseudomonas aeruginosa [6]) was over 64 µg/mL and the Activity (Staphylococcus aureus [37]) was “Active”. It also gave an MIC (Staphylococcus aureus [7]) of 1 µg/mL, an MIC [9] of 0.5 µg/mL and an IC50 (DNA gyrase [10]) of 1460 µM. The Activity [11] was “Non-Toxic”, the LD50 [38] was over 2000 mg/kg and the MIC (Staphylococcus aureus [13]) was 0.5 µg/mL. For the same compound, the MIC [14] was 2 µg/mL, the ED50 (Staphylococcus aureus [39]) was 7.3 mg/kg and the “Ratio ED50” value (Staphylococcus aureus [40]) was 1.5. The CC50 at 72 h [15] was 30.9 µg/mL, the MIC (Enterococcus faecalis) was 32 µg/mL and the MIC (Staphylococcus aureus [16]) was 2 µg/mL. For the same compound, the MIC (Cedecea davisae) was 1 µg/mL, the Activity (Staphylococcus aureus [41]) was “inactive” and the MIC (Escherichia coli [22]) was 2 µg/mL. The IC50 (DNA gyrase [23]) was 59.7 µM, the MIC (Klebsiella aerogenes) was 2 µg/mL and the LD50 [25] was over 2000 mg/kg. It also gave an MIC [26] of 0.03 µg/mL, an MIC [27] of 8 µg/mL and an MIC (Escherichia coli [28]) of 0.5 µg/mL. For the same compound, the CC50 at 72 h [29] was 40.3 µg/mL, the Activity [30] was “Non-Toxic” and the IC50 (Topoisomerase IV) was 397 µM. For the same compound, the MIC (Salmonella typhimurium) was 2 µg/mL, the MIC [33] was 1 µg/mL and the CC50 at 72 h [34] was 34.5 µg/mL. The Activity [42] was “Non-Toxic” and the MIC (Micrococcus luteus) was 4 µg/mL.
